# Source: patent US11136315B2, “CXCR2 antagonist” (MEDSHINE DISCOVERY INC., priority 2018, dated 2021)
# How the values were obtained:
# PPE-induced COPD model = assay: Therapeutic effect on PPE-induced COPD model, flow cytometry of inflammatory cells; format: in vivo, C57BL/6 mice; details: PPE-induced mouse COPD model, daily gavage 4 weeks, high dose (120 mpk)
# Experimental: The therapeutic effect of the compounds on PPE-induced COPD model in C57BL/6 mice was tested. Animals: C57BL/6 mice (female, 17.5-18.5 g, 6-8 weeks old) Drugs: Porcine pancreas elastase (PPE) (sigma, 0.068 U/μL); compound 1 in FIG. 1, FIG. 2 and FIG. 3 is danirixin; compound 2 is WX006A. Grouping: (1) COPD model group (porcine pancreatic elastase model group) • (2) PPE+ danirixin (40 mpk) • (3) PPE+ danirixin (120 mpk) • (4) PPE+WX006A (4 mpk) • (5) PPE+WX006A (12 mpk) 1. Modeling method: PPE was administered through by drip transfusion at the back of the tongue. 2. Administration method: an aqueous solution of 1% DMSO/1% hydroxypropyl methylcellulose/0.2% Tween 80 was used as the vehicle; the animals were daily administered with a volume of 200 μL/animal by gavage for 4 weeks. 3. End point of the experiment: On the 29th day, the mice were euthanized, samples were collected, and flow cytometry was performed. The blood, alveolar lavage fluid and lung tissue of the mice were collected after 4 weeks of administration to determine the percentage of inflammatory cells. 1) Alveolar lavage cells: the mice were euthanized. […] 3) The cells were counted and the cell suspensions were transferred into flow cytometry tubes. […] 5) After washing the cells, the percentage of neutrophils and monocytes in CD45^+ cells was determined using a flow cytometer.
# [1] = Pharmacokinetic and tissue distribution in Lewis rats; format: in vivo; details: male, rat, lung / plasma, oral, 5 mg/kg, gavage 5 mpk, read-out: Ratio in lung blood
# Experimental: The pharmacokinetic and tissue distribution of the compounds in Lewis rats was tested.
# Lewis rats (male, 202-239 g, 7-9 weeks old, Beijing Viton Lihua)
# Formulations containing an aqueous solution of 1% hydroxypropyl methylcellulose/0.2% Tween 80 as the vehicle were administered by gavage (5 mpk). Before the animal experiment, all animals were fasted overnight, and fed 4 hours after administration; all animals were free to drink water. The time points of blood collection: danirixin administration group: 0.25, 1, 8 hours; gavage administration group: 0.5, 1, 4 hours.
# (§1) Whole blood samples (0.2 mL) were collected through the saphenous vein (or other suitable blood collection sites) at the prescribed time points, and all blood samples were added to labeled plastic centrifuge tubes containing K2-EDTA anticoagulant. After the blood samples were collected, the plasma was separated by centrifugation, immediately placed in dry ice and stored at low temperature. All samples were analyzed by LC-MS/MS with a minimum detection limit of 2 nM. The non-compartmental model of WinNonlin™ Version 6.3 (Pharsight, Mountain View, Calif.) pharmacokinetic software was used to process the mean plasma concentration, and the log-linear trapezoid method was used to calculate the pharmacokinetic parameters.
# [2] = Pharmacokinetic evaluation in C57BL/6 mice; format: in vivo; details: male, mouse, plasma
# Experimental: The pharmacokinetic parameters of the compounds in C57BL/6 mice were investigated.
# C57BL/6 mice (male, 18-30 g, 7-9 weeks old, Shanghai Lingchang Biotechnology Co., Ltd.)
# Formulations containing an aqueous solution of 1% DMSO/10% hydroxypropyl-β-cyclodextrin as the vehicle were administered by intravenous injection (1 mpk), formulations containing an aqueous solution of 1% DMSO/1% hydroxypropyl methylcellulose/0.2% Tween 80 as the vehicle were administered by gavage (5 mpk). Before the animal experiment, all animals were fasted, and fed 4 hours after administration; all animals were free to drink water. The time points of blood collection: intravenous injection administration group: 0.083, 0.25, 0.5, 1, 2, 4, 6, 8 and 24 hours; gavage administration group: 0.25, 0.5, 1, 2, 4, 6, 8 and 24 hours.
# as §1, with “(0.03” for “(0.2”, “isolated” for “separated”, “linear-log” for “log-linear”
structure (smiles),measurement,setting,value
"Cc1c(F)cccc1NC(=O)Nc1ccc(Cl)c(S(=O)(=O)[C@H]2CCCNC2)c1O [Danirixin, danirixin, reference compound]",proportion of monocytes in the alveolar lavage fluid,PPE-induced COPD model,significant effect of reducing
same,proportion of neutrophils in the alveolar lavage fluid,PPE-induced COPD model,significant effect of reducing
same,Kp,[1],1.57
same,clearance,[2]; intravenous 1 mpk / gavage 5 mpk study,42.5 mL/min/kg
same,half-life,"[2]; intravenous 1 mpk / gavage 5 mpk study, read-out: Half-life T1/2 (converted)",7.43 h
same,AUC,"[2]; intravenous 1 mpk / gavage 5 mpk study, route not stated, unit printed shifted under first column, read-out: Area under the drug concentration time curve (AUC)",1.58 µM·h
same,bioavailability,"[2]; po, 5 mg/kg, gavage 5 mpk vs intravenous 1 mpk, read-out: Bioavailability (F)",34.3%
